Reference: PMC7181660, “A novel specific PERK activator reduces toxicity and extends survival in Huntington's disease models” (Scientific Reports, 2020)
Like-named read-outs stand apart in the source and are kept apart here.

Assays:
Assay in all cases: biochemical
Assay type in all cases: biochemical
panel of 391 kinases [1] = target: panel of 391 kinases (Homo sapiens, UniProt Q9BUB5); conditions: MNK1, MK-28 1 µM, ATP 1 µM
panel of 391 kinases [2] = target: panel of 391 kinases (Homo sapiens, UniProt P11362); conditions: FGFR1, MK-28 1 µM, ATP 1 µM
panel of 391 kinases [3] = target: panel of 391 kinases (Homo sapiens, UniProt Q9Y463); conditions: DYRK1B, MK-28 1 µM, ATP 1 µM
panel of 391 kinases [4] = target: panel of 391 kinases (Homo sapiens, UniProt O60285); conditions: ARK5/NUAK1, MK-28 1 µM, ATP 1 µM
panel of 391 kinases [5] = target: panel of 391 kinases (Homo sapiens, UniProt O00238); conditions: ALK6/BMPR1B, MK-28 1 µM, ATP 1 µM
panel of 391 kinases [6] = target: panel of 391 kinases (Homo sapiens, UniProt Q02750); conditions: MEK1, MK-28 1 µM, ATP 1 µM
panel of 391 kinases [7] = target: panel of 391 kinases (Homo sapiens, UniProt O00418); conditions: kinase EEF2K, compound at 1 µM, single dose in duplicates, 1 µM ATP
panel of 391 kinases [8] = target: panel of 391 kinases (Homo sapiens, UniProt Q96PN8); conditions: TSSK3/STK22C, MK-28 1 µM, ATP 1 µM
panel of 391 kinases [9] = target: panel of 391 kinases (Homo sapiens, UniProt Q9UM73); conditions: ALK, MK-28 1 µM, ATP 1 µM
panel of 391 kinases [10] = target: panel of 391 kinases (Homo sapiens, UniProt Q86UX6); conditions: STK32C/YANK3, MK-28 1 µM, ATP 1 µM
panel of 391 kinases [11] = target: panel of 391 kinases (Homo sapiens, UniProt Q16584); conditions: MLK3/MAP3K11, MK-28 1 µM, ATP 1 µM
panel of 391 kinases [12] = target: panel of 391 kinases (Homo sapiens, UniProt P00519); conditions: ABL1, MK-28 1 µM, ATP 1 µM
panel of 391 kinases [13] = target: panel of 391 kinases (Homo sapiens, UniProt P29597); conditions: TYK2, MK-28 1 µM, ATP 1 µM
panel of 391 kinases [14] = target: panel of 391 kinases (Homo sapiens, UniProt P49137); conditions: MAPKAPK2, MK-28 1 µM, ATP 1 µM
panel of 391 kinases [15] = target: panel of 391 kinases (Homo sapiens, UniProt P22612); conditions: PKAcg, MK-28 1 µM, ATP 1 µM
panel of 391 kinases [16] = target: panel of 391 kinases (Homo sapiens, UniProt P24941); conditions: MK-28 1 µM, ATP 1 µM; for remaining activity at 1 µM: read-out: % Enzyme Activity (relative to DMSO controls)
panel of 391 kinases [17] = target: panel of 391 kinases (Homo sapiens, UniProt Q16644); conditions: MAPKAPK3, MK-28 1 µM, ATP 1 µM
panel of 391 kinases [18] = target: panel of 391 kinases (Homo sapiens, UniProt Q8WXR4); conditions: MYO3b, MK-28 1 µM, ATP 1 µM
panel of 391 kinases [19] = target: panel of 391 kinases (Homo sapiens, UniProt O00444); conditions: PLK4/SAK, MK-28 1 µM, ATP 1 µM
panel of 391 kinases [20] = target: panel of 391 kinases (Homo sapiens, UniProt O94921); conditions: CDK14/cyclin Y (PFTK1), MK-28 1 µM, ATP 1 µM
panel of 391 kinases [21] = target: panel of 391 kinases (Homo sapiens, UniProt Q9UIK4); conditions: DAPK2, MK-28 1 µM, ATP 1 µM
panel of 391 kinases [22] = target: panel of 391 kinases (Homo sapiens, UniProt Q13164); conditions: ERK5/MAPK7, MK-28 1 µM, ATP 1 µM
panel of 391 kinases [23] = target: panel of 391 kinases (Homo sapiens, UniProt P51957); conditions: NEK4, MK-28 1 µM, ATP 1 µM
panel of 391 kinases [24] = target: panel of 391 kinases (Homo sapiens, UniProt P41279); conditions: COT1/MAP3K8, MK-28 1 µM, ATP 1 µM
panel of 391 kinases [25] = target: panel of 391 kinases (Homo sapiens, UniProt Q9UF33); conditions: EPHA6, MK-28 1 µM, ATP 1 µM
[26] = read-out: % Enzyme Activity (relative to DMSO controls)

With `CN(/N=C\c1ccc(O)c(O)c1)c1nc(-c2ccccc2)cc(-c2ccccc2)n1` [MK-28] the “% Enzyme Activity (relative to DMSO controls)” value (panel of 391 kinases [1]) was 114.65%, the remaining activity at 1 µM (panel of 391 kinases [1]; [26]) was 116% and the “% Enzyme Activity (relative to DMSO controls)” value (panel of 391 kinases [2]) was 103.69%. For the same compound, the remaining activity at 1 µM (panel of 391 kinases [2]; [26]) was 105%, the “% Enzyme Activity (relative to DMSO controls)” value (panel of 391 kinases [3]) was 88.09% and the remaining activity at 1 µM (panel of 391 kinases [3]; [26]) was 89.9%. For the same compound, the “% Enzyme Activity (relative to DMSO controls)” value (panel of 391 kinases [4]) was 91.19%, the remaining activity at 1 µM (panel of 391 kinases [4]; [26]) was 93.8% and the “% Enzyme Activity (relative to DMSO controls)” value (panel of 391 kinases [5]) was 100.96%. For the same compound, the remaining activity at 1 µM (panel of 391 kinases [5]; [26]) was 101%, the “% Enzyme Activity (relative to DMSO controls)” value (panel of 391 kinases [6]) was 99.18% and the remaining activity at 1 µM (panel of 391 kinases [6]; [26]) was 100%. The “% Enzyme Activity (relative to DMSO controls)” value (panel of 391 kinases [7]) was 90.89%, the remaining activity at 1 µM (panel of 391 kinases [7]; [26]) was 91% and the “% Enzyme Activity (relative to DMSO controls)” value (panel of 391 kinases [8]) was 86.26%. For the same compound, the remaining activity at 1 µM (panel of 391 kinases [8]; [26]) was 88%, the “% Enzyme Activity (relative to DMSO controls)” value (panel of 391 kinases [9]) was 82.73% and the remaining activity at 1 µM (panel of 391 kinases [9]; [26]) was 82.8%. The “% Enzyme Activity (relative to DMSO controls)” value (panel of 391 kinases [10]) was 104.62%, the remaining activity at 1 µM (panel of 391 kinases [10]; [26]) was 112% and the “% Enzyme Activity (relative to DMSO controls)” value (panel of 391 kinases [11]) was 162.84%. For the same compound, the remaining activity at 1 µM (panel of 391 kinases [11]; [26]) was 168%, the “% Enzyme Activity (relative to DMSO controls)” value (panel of 391 kinases [12]) was 94.94% and the remaining activity at 1 µM (panel of 391 kinases [12]; [26]) was 98.9%. The “% Enzyme Activity (relative to DMSO controls)” value (panel of 391 kinases [13]) was 90.72%, the remaining activity at 1 µM (panel of 391 kinases [13]; [26]) was 91.3% and the “% Enzyme Activity (relative to DMSO controls)” value (panel of 391 kinases [14]) was 93.81%. For the same compound, the remaining activity at 1 µM (panel of 391 kinases [14]; [26]) was 94%, the “% Enzyme Activity (relative to DMSO controls)” value (panel of 391 kinases [15]) was 92.94% and the remaining activity at 1 µM (panel of 391 kinases [15]; [26]) was 93.5%. For the same compound, the “% Enzyme Activity (relative to DMSO controls)” value (panel of 391 kinases [16]; CDK2/Cyclin A1) was 112.90%, the remaining activity at 1 µM (panel of 391 kinases [16]; CDK2/Cyclin A1) was 118% and the “% Enzyme Activity (relative to DMSO controls)” value (panel of 391 kinases [16]; CDK2/cyclin A) was 102.50%. The remaining activity at 1 µM (panel of 391 kinases [16]; CDK2/cyclin A) was 104%, the “% Enzyme Activity (relative to DMSO controls)” value (panel of 391 kinases [16]; CDK2/cyclin E2) was 99.65% and the remaining activity at 1 µM (panel of 391 kinases [16]; CDK2/cyclin E2) was 100%. The “% Enzyme Activity (relative to DMSO controls)” value (panel of 391 kinases [16]; CDK2/cyclin E) was 95.41%, the remaining activity at 1 µM (panel of 391 kinases [16]; CDK2/cyclin E) was 97% and the “% Enzyme Activity (relative to DMSO controls)” value (panel of 391 kinases [16]; CDK2/cyclin O) was 124.92%. For the same compound, the remaining activity at 1 µM (panel of 391 kinases [16]; CDK2/cyclin O) was 126%, the “% Enzyme Activity (relative to DMSO controls)” value (panel of 391 kinases [17]) was 71.56% and the remaining activity at 1 µM (panel of 391 kinases [17]; [26]) was 74.1%. For the same compound, the “% Enzyme Activity (relative to DMSO controls)” value (panel of 391 kinases [18]) was 107.45%, the remaining activity at 1 µM (panel of 391 kinases [18]; [26]) was 113% and the “% Enzyme Activity (relative to DMSO controls)” value (panel of 391 kinases [19]) was 92.07%. For the same compound, the remaining activity at 1 µM (panel of 391 kinases [19]; [26]) was 94.7%, the “% Enzyme Activity (relative to DMSO controls)” value (panel of 391 kinases [20]) was 103.85% and the remaining activity at 1 µM (panel of 391 kinases [20]; [26]) was 105%. For the same compound, the “% Enzyme Activity (relative to DMSO controls)” value (panel of 391 kinases [21]) was 98.71%, the remaining activity at 1 µM (panel of 391 kinases [21]; [26]) was 104% and the “% Enzyme Activity (relative to DMSO controls)” value (panel of 391 kinases [22]) was 118.22%. For the same compound, the remaining activity at 1 µM (panel of 391 kinases [22]; [26]) was 119%, the “% Enzyme Activity (relative to DMSO controls)” value (panel of 391 kinases [23]) was 89.27% and the remaining activity at 1 µM (panel of 391 kinases [23]; [26]) was 91.6%. For the same compound, the “% Enzyme Activity (relative to DMSO controls)” value (panel of 391 kinases [24]) was 95.23%, the remaining activity at 1 µM (panel of 391 kinases [24]; [26]) was 96% and the “% Enzyme Activity (relative to DMSO controls)” value (panel of 391 kinases [25]) was 92.67%. For the same compound, the remaining activity at 1 µM (panel of 391 kinases [25]; [26]) was 94%.
